Residues, ends and D or L forms follow the SMILES beside them. *: point of attachment. Cbz = O=C(OCc1ccccc1)*
Assays:
Rap1 = Rap1 inhibition experiment, R-VEC tube formation; assay type: cell-based, human; conditions: R-VECs, 10 μM, 4 weeks
Description: Tube formation assays for endothelial cells with or without ETV2 were set up in 24 wells as described above. The next day, Rap1 inhibitor (GGTI-298, Tocris) resuspended in DMSO was added to the wells at a 1:1000 dilution at the final concentration of 10 μM, while the same amount of DMSO was added to the control wells. The inhibitor and media were changed every other day for 4 weeks. Images were obtained and calculated as described above at 1 week and 4 week time points.

ETV2 protein levels = experiment: Proteasome inhibition experiment in R-VEC tubes; assay type: cell-based, human; conditions: R-VEC tubes at stabilization stage (4 weeks), 20 μM for 6 hrs vs DMSO, Western blot
Description: Cells were lysed into 1×SDS loading buffer (50 mM Tris-HCl pH 6.8, 5% beta-mercaptoethanol, 2% SDS, 0.01% bromophenol blue, 10% glycerol) followed by sonication (Bioruptor, 2×30 seconds at high setting). Proteins were solved on 5-15% gradient Tris-glycine SDS-PAGE and semi-dry transferred to nitrocellulose membranes. The following primary antibodies were used at indicated dilutions: Rap1 (CST, #2399, 1:1,000); RASGRP3 (CST, #3334, 1:1,000), GAPDH (CST, #5174, 1:10,000); AKT (CST, 34685, 1:5,000); p-S473-Akt (CST, #4060, 1:2,000); ETS1 (CST, #14069, 1,000); and ETV2 (Abcam, ab181847, 1:1,000). HRP-conjugated secondary antibodies and the ECL Prime Western Blotting System (GE Healthcare, RPN2232) were then used. Chemiluminescent signals were captured with a digital camera (Kindle Biosciences) and images of protein bands taken for quantification using ImageJ.
R-VEC vessels were prepared on Matrigel as described above. At stabilization stage (4 weeks), R-VEC tubes were treated with either 20 μM of MG132 (Selleck Chemicals) or DMSO for 6 hrs. The media was removed and the wells were washed once with PBS. R-VEC tubes were then incubated in a solution of 2 mg/ml Dispase (Sigma) for 45 mins at 37° C. to dissociate the tubes. 20 μM of MG132 (Selleck Chemicals) or DMSO was continuously provided during the dissociation period. […]

| SMILES | lumen (Rap1; confocal and electron microscopy) | vessel formation (Rap1; vs DMSO) | ETV2 protein levels restored (ETV2 protein levels) |
| --- | --- | --- | --- |
| COC(=O)[C@H](CC(C)C)NC(=O)c1ccc(NC[C@@H](N)CS)cc1-c1cccc2ccccc12 [GGTI298] | no lumen was present | significantly reduced | – |
| CC(C)C[C@@H](C=O)NC(=O)[C@H](CC(C)C)NC(=O)[C@H](CC(C)C)NC(=O)OCc1ccccc1 [MG132] (Cbz-Leu-Leu-Leu-aldehyde) | – | – | six-fold |
